Reference: patent US11377441B2, “Covalent inhibitors of KRAS” (Araxes Pharma LLC, priority 2017, dated 2022)

Molecular target: T1, KRAS G12C 1-169, his-tagged protein, GDP-loaded (Homo sapiens, UniProt P01116, G12C)
T1 construct: KRAS G12C 1-169, his-tagged protein, GDP-loaded
Experiment: Biochemical assay: covalent modification of KRAS G12C measured by mass spectrometry (RapidFire/TOF or Q-Exactive)
Type: binding
Conditions: covalent binding to (modification of) KRAS G12C after a ten minute incubation period
In short: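 Intact-mass readout (TOF or Q-Exactive, charge-envelope deconvolution) gives percent covalent adduct from modified and unmodified species. Compound at 10, 30 or 100 μM was incubated at room temperature for 10 min to 24 h with 2 μM or 0.5 μM GDP-bound KRAS G12C 1-169 in Hepes/NaCl/MgCl2 buffer, then acid-quenched.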

Row | Compound | Binding %
1 | C=CC(=O)N1C[C@H](C)N(c2nc(NC(C)=O)nc3c(F)c(-c4c(C)ccc5[nH]nc(C6CC6)c45)c(Cl)cc23)C[C@H]1C [Compound 259, N-(4-((2S,5R)-4-acryloyl-2,5-dimethylpiperazin-1-yl)-6-chloro-7-(3-cyclopropyl-5-methyl-1H-indazol-4-yl)-8-fluoroquinazolin-2-yl)acetamide] | ++ (++ indicates binding activity from 50 to 80%)
2 | C=CC(=O)N1C[C@H](C)N(c2nc(N3CC(N(C)C)C3)nc3c(F)c(-c4c(C)ccc5[nH]nc(NC)c45)c(Cl)cc23)C[C@H]1C [Compound 13, 1-((2R,5S)-4-(6-chloro-2-(3-(dimethylamino)azetidin-1-yl)-8-fluoro-7-(5-methyl-3-(methylamino)-1H-indazol-4-yl)quinazolin-4-yl)-2,5-dimethylpiperazin-1-yl)prop-2-en-1-one] | ++ (++ indicates binding activity from 50 to 80%)
3 | C=CC(=O)N1CCN(c2nc(N3CC(N(C)C)C3)nc3c(F)c(-c4c(C)ccc5cn[nH]c45)c(Cl)cc23)CC1CC#N (centres unmarked) [Compound 266, 2-(1-acryloyl-4-(6-chloro-2-(3-(dimethylamino)azetidin-1-yl)-8-fluoro-7-(6-methyl-1H-indazol-7-yl)quinazolin-4-yl)piperazin-2-yl)acetonitrile] | ++ (++ indicates binding activity from 50 to 80%)
4 | C=CC(=O)N1C[C@H](C)N(c2nc(OC[C@@H]3C[C@H](OC)CN3C)nc3c(F)c(-c4c(C)ccc5cnn(C6CC6)c45)c(Cl)cc23)C[C@H]1C [Compound 199, 1-((2R,5S)-4-(6-chloro-7-(1-cyclopropyl-6-methyl-1H-indazol-7-yl)-8-fluoro-2-(((2S,4S)-4-methoxy-1-methylpyrrolidin-2-yl)methoxy)quinazolin-4-yl)-2,5-dimethylpiperazin-1-yl)prop-2-en-1-one] | +++ (+++ indicates binding activity greater than 80%)
5 | C=CC(=O)N1C[C@H](C)N(c2nc(N3CC(N(C)C)C3)nc3c(F)c(-c4c(C)ccc5[nH]nc(NCC)c45)c(Cl)cc23)C[C@H]1C [Compound 46, 1-((2R,5S)-4-(6-chloro-2-(3-(dimethylamino)azetidin-1-yl)-7-(3-(ethylamino)-5-methyl-1H-indazol-4-yl)-8-fluoroquinazolin-4-yl)-2,5-dimethylpiperazin-1-yl)prop-2-en-1-one] | ++ (++ indicates binding activity from 50 to 80%)
6 | C=CC(=O)N1C[C@H](C)N(c2nc(N3CC(N(C)C)C3)nc3c(F)c(-c4ccc(Cl)c5[nH]ncc45)c(Cl)cc23)C[C@H]1C [Compound 30, 1-((2R,5S)-4-(6-chloro-7-(7-chloro-1H-indazol-4-yl)-2-(3-(dimethylamino)azetidin-1-yl)-8-fluoroquinazolin-4-yl)-2,5-dimethylpiperazin-1-yl)prop-2-en-1-one] | + (+ indicates binding activity greater than 0% and up to 50%)
7 | C=CC(=O)N1C[C@H](C)N(c2nc(N3CC(C(N)=O)C3)nc3c(F)c(-c4c(C)ccc5[nH]nc(C6CC6)c45)c(Cl)cc23)C[C@H]1C [Compound 257, 1-(4-((2S,5R)-4-acryloyl-2,5-dimethylpiperazin-1-yl)-6-chloro-7-(3-cyclopropyl-5-methyl-1H-indazol-4-yl)-8-fluoroquinazolin-2-yl)azetidine-3-carboxamide] | ++ (++ indicates binding activity from 50 to 80%)
8 | C=CC(=O)N1C[C@H](C)N(c2nc(OC[C@H]3CC(F)(F)CN3C)nc3c(F)c(-c4c(C)ccc5cnn(C)c45)c(Cl)cc23)C[C@H]1C [Compound 241, 1-((2R,5S)-4-(6-chloro-2-(((R)-4,4-difluoro-1-methylpyrrolidin-2-yl)methoxy)-7-(1,6-dimethyl-1H-indazol-7-yl)-8-fluoroquinazolin-4-yl)-2,5-dimethylpiperazin-1-yl)prop-2-en-1-one] | + (+ indicates binding activity greater than 0% and up to 50%)
9 | C=CC(=O)N1[C@H](C)CN(c2nc(N3CC(N(C)C)C3)nc3c(F)c(-c4c(C)ccc5[nH]nc(C)c45)c(Cl)cc23)C[C@@H]1C (atropisomer, axis not shown) [Compound 151, 1-((2S,6R)-4-((S)-6-chloro-7-(3,5-dimethyl-1H-indazol-4-yl)-2-(3-(dimethylamino)azetidin-1-yl)-8-fluoroquinazolin-4-yl)-2,6-dimethylpiperazin-1-yl)prop-2-en-1-one] | + (+ indicates binding activity greater than 0% and up to 50%)
10 | C=CC(=O)N1CCN(c2nc(N3CC(N(C)C)C3)nc3c(F)c(-c4c(C)ccc5[nH]nc(C)c45)c(Cl)cc23)CC1CC#N (centres unmarked) [Compound 270, 2-(1-acryloyl-4-(6-chloro-7-(3,5-dimethyl-1H-indazol-4-yl)-2-(3-(dimethylamino)azetidin-1-yl)-8-fluoroquinazolin-4-yl)piperazin-2-yl)acetonitrile] | +++ (+++ indicates binding activity greater than 80%)
11 | C=CC(=O)N1C[C@H](C)N(c2nc(OC[C@@H]3CCCN3C)nc3c(F)c(-c4c(C)ccc5cnn(C)c45)c(Cl)cc23)C[C@H]1C (atropisomer, axis not shown) [Compound 235, 1-((2R,5S)-4-((R)-6-chloro-7-(1,6-dimethyl-1H-indazol-7-yl)-8-fluoro-2-(((S)-1-methylpyrrolidin-2-yl)methoxy)quinazolin-4-yl)-2,5-dimethylpiperazin-1-yl)prop-2-en-1-one] | +++ (+++ indicates binding activity greater than 80%)
12 | C=CC(=O)N1C[C@@H](C)N(c2nc(N3CC(N(C)C)C3)nc3c(F)c(-c4c(C)ccc5[nH]nc(N)c45)c(Cl)cc23)[C@@H](C)C1 [Compound 45, 1-((3R,5S)-4-(7-(3-amino-5-methyl-1H-indazol-4-yl)-6-chloro-2-(3-(dimethylamino)azetidin-1-yl)-8-fluoroquinazolin-4-yl)-3,5-dimethylpiperazin-1-yl)prop-2-en-1-one] | +++ (+++ indicates binding activity greater than 80%)
13 | [2H]C([2H])([2H])N(C1CN(c2nc(N3C[C@@H](C)N(C(=O)C=C)C[C@@H]3C)c3cc(Cl)c(-c4c(C)ccc5[nH]nc(C6CC6)c45)c(F)c3n2)C1)C([2H])([2H])[2H] (atropisomer, axis not shown) [Compound 223, 1-((2R,5S)-4-((S)-6-chloro-7-(3-cyclopropyl-5-methyl-1H-indazol-4-yl)-2-(3-(di-perdeuteromethylamino)azetidin-1-yl)-8-fluoroquinazolin-4-yl)-2,5-dimethylpiperazin-1-yl)prop-2-en-1-one] | + (+ indicates binding activity greater than 0% and up to 50%)
14 | C=CC(=O)N1C[C@H](C)N(c2nc(N3CC(N(C)C)C3)nc3c(F)c(-c4cccc5ccn(C)c45)c(Cl)cc23)C[C@H]1C [Compound 138, 1-((2R,5S)-4-(6-chloro-2-(3-(dimethylamino)azetidin-1-yl)-8-fluoro-7-(1-methyl-1H-indol-7-yl)quinazolin-4-yl)-2,5-dimethylpiperazin-1-yl)prop-2-en-1-one] | +++ (+++ indicates binding activity greater than 80%)
15 | C=CC(=O)N1C[C@H](C)N(c2nc(OCCN3CC[C@@H](F)C3)nc3c(F)c(-c4c(C)ccc5[nH]nc(N)c45)c(Cl)cc23)C[C@H]1C [Compound 108, 1-((2R,5S)-4-(7-(3-amino-5-methyl-1H-indazol-4-yl)-6-chloro-8-fluoro-2-(2-((R)-3-fluoropyrrolidin-1-yl)ethoxy)quinazolin-4-yl)-2,5-dimethylpiperazin-1-yl)prop-2-en-1-one] | +++ (+++ indicates binding activity greater than 80%)
16 | C=CC(=O)N1C[C@H](C)N(c2nc(OC[C@H]3CCCN3C)nc3c(F)c(-c4c(C)ccc5[nH]nc(C6CC6)c45)c(Cl)cc23)C[C@H]1C [Compound 160, 1-((2R,5S)-4-(6-chloro-7-(3-cyclopropyl-5-methyl-1H-indazol-4-yl)-8-fluoro-2-(((R)-1-methylpyrrolidin-2-yl)methoxy)quinazolin-4-yl)-2,5-dimethylpiperazin-1-yl)prop-2-en-1-one] | +++ (+++ indicates binding activity greater than 80%)
17 | C=CC(=O)N1C[C@H](C)N(c2nc(OC[C@H]3CCN(C)C3)nc3c(F)c(-c4c(C)ccc5cnn(C6CC6)c45)c(Cl)cc23)C[C@H]1C [Compound 198, 1-((2R,5S)-4-(6-chloro-7-(1-cyclopropyl-6-methyl-1H-indazol-7-yl)-8-fluoro-2-(((S)-1-methylpyrrolidin-3-yl)methoxy)quinazolin-4-yl)-2,5-dimethylpiperazin-1-yl)prop-2-en-1-one] | ++ (++ indicates binding activity from 50 to 80%)
18 | C=CC(=O)N1C[C@H](C)N(c2nc(N3CC(N(C)C)C3)nc3c(F)c(-c4c(C)ccc5[nH]nc(N)c45)c(Cl)cc23)C[C@H]1C [Compound 3, 1-((2R,5S)-4-(7-(3-amino-5-methyl-1H-indazol-4-yl)-6-chloro-2-(3-(dimethylamino)azetidin-1-yl)-8-fluoroquinazolin-4-yl)-2,5-dimethylpiperazin-1-yl)prop-2-en-1-one] | +++ (+++ indicates binding activity greater than 80%)
19 | C=CC(=O)N1C[C@H](C)N(c2nc(N3CC(C(N)=O)C3)nc3c(F)c(-c4c(C)ccc5cnn(C)c45)c(Cl)cc23)C[C@H]1C [Compound 244, 1-(4-((2S,5R)-4-acryloyl-2,5-dimethylpiperazin-1-yl)-6-chloro-7-(1,6-dimethyl-1H-indazol-7-yl)-8-fluoroquinazolin-2-yl)azetidine-3-carboxamide] | ++ (++ indicates binding activity from 50 to 80%)
20 | C=CC(=O)N1C[C@H](C)N(c2nc(NCCc3ncccn3)nc3c(F)c(-c4c(C)ccc5onc(N)c45)c(Cl)cc23)C[C@H]1C [Compound 91, 1-((2R,5S)-4-(7-(3-amino-5-methylbenzo[d]isoxazol-4-yl)-6-chloro-8-fluoro-2-(2-(pyrimidin-2-yl)ethylamino)quinazo-lin-4-yl)-2,5-dimethylpiperazin-1-yl)prop-2-en-1-one] | +++ (+++ indicates binding activity greater than 80%)
